In patent US20230322769A1, “HETEROAROMATIC RING COMPOUND AS RET KINASE INHIBITOR, AND PREPARATION AND USE THEREOF” (JIANGSU CHIA TAI FENGHAI PHARMACEUTICAL CO., LTD., priority 2020, published 2023):
Like-named read-outs stand apart in the source and are kept apart here.

Key:
RET wild type (RET WT) = RET wild type (RET WT) (Homo sapiens (Human), UniProt P07949); assay: HTRF kinase activity assay, RET wild type; type: biochemical; conditions: 1 μM ATP
[1] = tested on: Ba/F3 KIF5B-RET-G810R cells; assay: Ba/F3 KIF5B-RET-G810R cell inhibition (CellTiter-Glo); type: cell-based; conditions: Mus musculus, BaF3, 72 h, maximum concentration 1000 nM
Experimental: (§1) Activity Experiment 3: Inhibition of Ba/F3 KIF5B-RET Cells by Prepared Compounds Ba/F3 KIF5B-RET, Ba/F3KIF5B-RET-V804M, Ba/F3 RET-M918T and Ba/F3 KIF5B-RET-G810R cells growing in log phase were harvested and counted using a […]. The cell viability was determined by the trypan blue exclusion method, and the cell viability was kept over 90%. The cell concentration was adjusted, and 90 μL of the cell suspension was added to a 96-well plate. The cells in the 96-well plate were incubated overnight at 37° C. with 5% CO2 and 95% humidity. Corresponding gradient concentrations of drug solutions (the maximum concentration was 1000 nM) were added to the 96-well plate inoculated with cells at 10 μL/well. Triplicate wells were set per drug concentration, and the final concentration of DMSO was 0.1%. The drug-treated cells in the 96-well plate were incubated for another 72 h at 37° C. with 5% CO2 and 95% humidity. After the drug treatment was completed, 100 μL of CellTiter-Glo reagent was added to each well. The cell plate was shaken on an orbital shaker for 5 min to lyse the cells and then let stand at room temperature for 20 min to stabilize the luminescence signals, and then the luminescence values were read. The data were analyzed using the GraphPad Prism 5.0 software. Dose-response curves were fit to the data using nonlinear S-curve regression, and IC50 was calculated from the curves.

hERG potassium channel [2] = target: T1, hERG potassium channel (Homo sapiens (Human), UniProt Q12809); assay: Inhibition of hERG potassium channel, whole-cell patch clamp in HEK293 cells
T1 sequence (Q12809 whole entry): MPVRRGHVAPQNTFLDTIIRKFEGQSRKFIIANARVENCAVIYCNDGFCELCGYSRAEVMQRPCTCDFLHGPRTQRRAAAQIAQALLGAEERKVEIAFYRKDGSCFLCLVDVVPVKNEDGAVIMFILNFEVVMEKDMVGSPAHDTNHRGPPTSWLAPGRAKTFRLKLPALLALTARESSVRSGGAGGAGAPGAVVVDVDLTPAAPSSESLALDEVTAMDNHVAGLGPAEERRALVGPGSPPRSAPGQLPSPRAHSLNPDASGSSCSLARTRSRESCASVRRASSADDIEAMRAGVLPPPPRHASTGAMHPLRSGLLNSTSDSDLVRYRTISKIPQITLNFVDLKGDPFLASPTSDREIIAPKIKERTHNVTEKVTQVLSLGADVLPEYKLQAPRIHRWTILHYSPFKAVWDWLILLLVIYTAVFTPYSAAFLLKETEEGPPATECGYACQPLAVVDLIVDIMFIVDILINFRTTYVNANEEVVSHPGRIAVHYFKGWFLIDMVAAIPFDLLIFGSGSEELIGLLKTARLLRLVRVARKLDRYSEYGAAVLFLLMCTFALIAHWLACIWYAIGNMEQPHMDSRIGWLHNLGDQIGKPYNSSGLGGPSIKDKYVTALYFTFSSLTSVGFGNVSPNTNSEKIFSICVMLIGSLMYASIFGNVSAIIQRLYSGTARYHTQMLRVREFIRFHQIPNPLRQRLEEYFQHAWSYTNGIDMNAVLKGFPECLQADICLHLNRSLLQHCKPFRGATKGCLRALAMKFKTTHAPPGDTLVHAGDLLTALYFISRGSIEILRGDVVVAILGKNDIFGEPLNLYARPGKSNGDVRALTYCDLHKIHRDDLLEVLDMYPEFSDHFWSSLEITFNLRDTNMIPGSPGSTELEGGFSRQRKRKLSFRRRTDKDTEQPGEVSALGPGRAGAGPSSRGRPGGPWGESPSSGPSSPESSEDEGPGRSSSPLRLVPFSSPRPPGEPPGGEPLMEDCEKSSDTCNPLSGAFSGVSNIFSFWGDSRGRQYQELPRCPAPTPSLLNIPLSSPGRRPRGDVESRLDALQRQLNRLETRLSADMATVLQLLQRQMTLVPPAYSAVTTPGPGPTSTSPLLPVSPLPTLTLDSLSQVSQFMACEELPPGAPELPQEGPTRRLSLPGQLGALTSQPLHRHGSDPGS

[3] = tested on: Ba/F3 KIF5B-RET-V804M cells; assay: Ba/F3 KIF5B-RET-V804M cell inhibition (CellTiter-Glo); type: cell-based; conditions: Mus musculus, BaF3, 72 h
Experimental: as §1

Ba/F3 RET-M918T cells = assay: Ba/F3 RET-M918T cell inhibition (CellTiter-Glo); type: cell-based; conditions: Mus musculus, BaF3, 72 h
Experimental: as §1

Ba/F3 KIF5B-RET cells = assay: Ba/F3 KIF5B-RET cell inhibition (CellTiter-Glo); type: cell-based; conditions: Mus musculus, BaF3, 72 h
Experimental: as §1

CCDC6-RET [4] = target: CCDC6-RET (Homo sapiens (Human), UniProt P07949+Q16204); assay: HTRF kinase activity assay, CCDC6-RET; type: biochemical; conditions: 1 μM ATP
Sequence of CCDC6-RET (Homo sapiens (Human), UniProt P07949+Q16204) (P07949 other isoform, or with tags, fused parts or gaps): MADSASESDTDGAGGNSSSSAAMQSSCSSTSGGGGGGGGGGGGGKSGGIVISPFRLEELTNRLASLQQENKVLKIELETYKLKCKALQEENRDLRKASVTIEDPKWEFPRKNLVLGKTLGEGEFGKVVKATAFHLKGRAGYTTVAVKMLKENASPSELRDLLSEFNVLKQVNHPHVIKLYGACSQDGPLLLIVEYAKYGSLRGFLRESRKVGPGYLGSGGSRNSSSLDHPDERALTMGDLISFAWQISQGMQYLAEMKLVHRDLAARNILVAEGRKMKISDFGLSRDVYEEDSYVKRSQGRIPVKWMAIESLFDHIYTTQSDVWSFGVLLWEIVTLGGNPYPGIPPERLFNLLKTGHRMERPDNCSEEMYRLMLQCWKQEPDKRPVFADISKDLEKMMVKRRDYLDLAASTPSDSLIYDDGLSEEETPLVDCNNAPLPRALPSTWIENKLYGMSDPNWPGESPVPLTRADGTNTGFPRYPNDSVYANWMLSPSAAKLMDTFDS

RET (M918T) = RET (M918T) (Homo sapiens (Human), UniProt P07949, M918T); assay: HTRF kinase activity assay, RET (M918T); type: biochemical; conditions: 10 μM ATP
Sequence of RET (M918T) (P07949 29-1114 M918T): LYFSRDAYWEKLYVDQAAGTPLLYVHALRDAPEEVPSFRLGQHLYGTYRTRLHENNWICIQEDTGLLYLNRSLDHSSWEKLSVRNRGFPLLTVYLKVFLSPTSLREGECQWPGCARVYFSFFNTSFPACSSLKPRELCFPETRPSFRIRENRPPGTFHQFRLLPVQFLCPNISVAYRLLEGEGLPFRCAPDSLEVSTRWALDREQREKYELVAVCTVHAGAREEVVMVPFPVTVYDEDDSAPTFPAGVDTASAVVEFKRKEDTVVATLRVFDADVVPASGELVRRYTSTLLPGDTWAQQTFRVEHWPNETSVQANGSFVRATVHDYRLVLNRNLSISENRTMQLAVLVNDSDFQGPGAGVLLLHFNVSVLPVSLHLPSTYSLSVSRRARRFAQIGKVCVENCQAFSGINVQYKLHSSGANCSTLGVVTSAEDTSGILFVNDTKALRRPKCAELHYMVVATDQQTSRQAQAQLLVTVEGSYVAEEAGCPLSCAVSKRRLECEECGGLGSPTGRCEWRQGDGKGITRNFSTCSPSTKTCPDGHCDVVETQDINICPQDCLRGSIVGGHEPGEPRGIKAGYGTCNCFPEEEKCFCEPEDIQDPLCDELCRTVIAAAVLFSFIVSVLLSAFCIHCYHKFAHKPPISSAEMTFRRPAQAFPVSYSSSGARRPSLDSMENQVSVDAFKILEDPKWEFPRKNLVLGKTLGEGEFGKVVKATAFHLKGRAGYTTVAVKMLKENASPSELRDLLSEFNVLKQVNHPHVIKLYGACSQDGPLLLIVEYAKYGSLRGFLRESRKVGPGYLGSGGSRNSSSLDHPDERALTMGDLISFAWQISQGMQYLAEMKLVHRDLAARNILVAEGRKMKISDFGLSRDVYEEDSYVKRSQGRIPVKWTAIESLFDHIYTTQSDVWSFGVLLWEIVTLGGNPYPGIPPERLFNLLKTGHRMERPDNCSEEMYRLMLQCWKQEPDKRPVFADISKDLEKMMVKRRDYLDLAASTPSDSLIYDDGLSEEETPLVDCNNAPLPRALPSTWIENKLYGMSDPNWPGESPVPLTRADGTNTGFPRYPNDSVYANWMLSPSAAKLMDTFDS

RET (V804M) = RET (V804M) (Homo sapiens (Human), UniProt P07949, V804M); assay: HTRF kinase activity assay, RET (V804M); type: biochemical; conditions: 10 μM ATP
Sequence of RET (V804M) (P07949 29-1114 V804M): as the sequence (P07949 29-1114 M918T) above, with V776M, T890M counted along it

KDR (VEGFR2) = KDR (VEGFR2) (Homo sapiens (Human), UniProt P35968); assay: HTRF kinase activity assay, KDR; type: biochemical; conditions: 20 μM ATP
Sequence of KDR (VEGFR2) (P35968 20-1356): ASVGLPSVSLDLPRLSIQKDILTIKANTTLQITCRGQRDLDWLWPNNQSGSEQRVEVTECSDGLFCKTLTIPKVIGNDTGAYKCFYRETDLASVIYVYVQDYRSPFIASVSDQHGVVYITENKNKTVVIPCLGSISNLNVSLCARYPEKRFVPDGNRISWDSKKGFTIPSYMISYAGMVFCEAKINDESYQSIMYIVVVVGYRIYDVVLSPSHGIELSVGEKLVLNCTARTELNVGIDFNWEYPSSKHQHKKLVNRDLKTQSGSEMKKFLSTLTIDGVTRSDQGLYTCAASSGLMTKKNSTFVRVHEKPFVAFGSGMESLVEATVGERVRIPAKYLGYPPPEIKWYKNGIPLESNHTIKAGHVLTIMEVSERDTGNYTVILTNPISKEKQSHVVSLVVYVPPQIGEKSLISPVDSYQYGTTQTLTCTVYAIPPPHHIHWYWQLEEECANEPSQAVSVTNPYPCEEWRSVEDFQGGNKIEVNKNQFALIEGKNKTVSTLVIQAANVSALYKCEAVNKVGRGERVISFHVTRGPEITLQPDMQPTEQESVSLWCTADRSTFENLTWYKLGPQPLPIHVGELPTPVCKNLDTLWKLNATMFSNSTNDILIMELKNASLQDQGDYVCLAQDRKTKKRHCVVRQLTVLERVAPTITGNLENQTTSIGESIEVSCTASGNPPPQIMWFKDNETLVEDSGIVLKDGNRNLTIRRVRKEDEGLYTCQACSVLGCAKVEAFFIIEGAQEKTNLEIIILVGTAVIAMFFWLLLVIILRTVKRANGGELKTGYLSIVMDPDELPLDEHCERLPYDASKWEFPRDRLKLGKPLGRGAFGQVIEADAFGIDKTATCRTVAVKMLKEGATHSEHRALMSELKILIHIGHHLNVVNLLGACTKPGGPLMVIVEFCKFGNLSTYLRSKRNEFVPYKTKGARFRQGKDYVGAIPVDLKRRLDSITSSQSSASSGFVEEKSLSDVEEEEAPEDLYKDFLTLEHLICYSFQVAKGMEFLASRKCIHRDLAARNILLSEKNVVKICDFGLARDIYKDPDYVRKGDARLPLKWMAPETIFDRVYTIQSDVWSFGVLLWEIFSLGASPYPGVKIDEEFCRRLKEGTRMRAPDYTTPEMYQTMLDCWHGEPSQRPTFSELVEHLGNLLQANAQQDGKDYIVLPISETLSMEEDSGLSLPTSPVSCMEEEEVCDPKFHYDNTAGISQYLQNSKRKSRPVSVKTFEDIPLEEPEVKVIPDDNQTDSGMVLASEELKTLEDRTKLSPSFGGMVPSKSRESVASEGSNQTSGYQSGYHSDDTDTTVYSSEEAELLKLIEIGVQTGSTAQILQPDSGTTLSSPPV

CCDC6-RET [5] = target: CCDC6-RET (Homo sapiens (Human), UniProt P07949); assay: HTRF kinase activity assay, CCDC6-RET; type: biochemical; conditions: 1 μM ATP
Sequence of CCDC6-RET (Homo sapiens (Human), UniProt P07949) (P07949 other isoform, or with tags, fused parts or gaps): as the sequence (P07949 other isoform, or with tags, fused parts or gaps) above

[6] = Metabolic stability in human liver microsomes
hERG potassium channel [7] = target: T1, hERG potassium channel
in vitro = conditions: human, microsomes; for microsomal CLint at 1 µM: CLint (μL/min/mg); for half-life at 1 µM: T1/2 (min)
[8] = read-out: IC50 for inhibition of hERG potassium channel, HEK293 cells stably expressing hERG, patch clamp
[9] = CLint (μL/min/mg), human liver microsomes, NADPH, Table 3
[10] = T1/2 (min), human liver microsomes, NADPH, Table 3

Sequence of RET wild type (RET WT) (P07949 29-1114): as the sequence (P07949 29-1114 M918T) above, with T890M counted along it

[2H]C([2H])([2H])N1CCN(c2cc(-c3ccc(N4CC5CC(C4)[N+]5([O-])Cc4ccc(OC)nc4)nc3)c3c(C#N)cnn3c2)CC1 (stereo not shown) [Compound 99]
IC50 (RET wild type (RET WT)): 56.6 nM

COc1ccc(CN2C3CC2CN(c2ccc(-c4cc(N5CCN(C)C(=O)C5)cn5ncc(C#N)c45)cn2)C3)cn1 [Compound 89]
IC50 [1]: 959 nM | IC50 (hERG potassium channel [2]; [8]): 7170 nM | IC50 [3]: 95.3 nM | IC50 (Ba/F3 RET-M918T cells): 11.6 nM | IC50 (Ba/F3 KIF5B-RET cells): 24 nM

COc1ccc(CN2C3CC2CN(c2ccc(-c4cc(N5CCNCC5)cn5ncc(C#N)c45)cn2)C3)cn1 [Compound 96]
IC50 [3]: 196 nM | IC50 (Ba/F3 RET-M918T cells): 45.1 nM | IC50 (Ba/F3 KIF5B-RET cells): 41.8 nM

COc1ccc(CN(C)C2CCCCC2N(C)c2ccc(-c3cc(-c4cnn(C)c4)cn4ncc(C#N)c34)cn2)cn1 (stereo not shown) [Compound 34]
IC50 (CCDC6-RET [4]): 71.6 nM | IC50 (RET wild type (RET WT)): 35.8 nM | IC50 (RET (M918T)): 97.8 nM | IC50 (RET (V804M)): 210 nM | IC50 (KDR (VEGFR2)): 311 nM

COc1ccc(CN2C3CC2CN(c2ccc(-c4cc(N5CCCC(O)C5)cn5ncc(C#N)c45)cn2)C3)cn1 (stereo not shown) [Compound 82]
IC50 (Ba/F3 KIF5B-RET cells): 17.1 nM

COc1ccc(CN2CCCN(c3ccc(-c4cc(-c5cnn(C)c5)cn5ncc(C#N)c45)cn3)CC2)cn1 [Compound 32]
IC50 (CCDC6-RET [4]): 3.13 nM | IC50 (RET wild type (RET WT)): 2.11 nM | IC50 (RET (M918T)): 1.73 nM | IC50 (RET (V804M)): 4.8 nM | IC50 (KDR (VEGFR2)): 39.1 nM

COc1ccc(CN2C3CC2CN(c2ccc(-c4cc(N5CCC(C)(O)C5)cn5ncc(C#N)c45)cn2)C3)cn1 (stereo not shown) [Compound 70]
IC50 [1]: 194 nM | IC50 (CCDC6-RET [5]): 1.02 nM | IC50 (hERG potassium channel [2]): 4740 nM | IC50 [3]: 11.9 nM | IC50 (Ba/F3 RET-M918T cells): 1.15 nM | IC50 (Ba/F3 KIF5B-RET cells): 0.99 nM | IC50 (RET wild type (RET WT)): 1.17 nM | IC50 (RET (M918T)): 1.62 nM | IC50 (RET (V804M)): 1.01 nM | microsomal CLint at 1 µM [6, 9]: 50.6 µL/min/mg | half-life at 1 µM [6, 10]: 27.4 min | IC50 (KDR (VEGFR2)): 23.9 nM

COc1ccc(CN2CCN(c3ccc(-c4cc(-c5cc6n(n5)CCC6)cn5ncc(C#N)c45)cn3)CC2)cn1 [Compound 58]
IC50 (RET wild type (RET WT)): 4.98 nM | IC50 (RET (M918T)): 9.52 nM | IC50 (RET (V804M)): 19.3 nM | IC50 (KDR (VEGFR2)): 134 nM

COc1ccc(CN2C3CC2CN(c2ccc(-c4cc(N5CC6CC(C5)N6C)cn5ncc(C#N)c45)cn2)C3)cn1 [Compound 17]
IC50 (hERG potassium channel [7]): 1310 nM | microsomal CLint at 1 µM (in vitro): 36.4 µL/min/mg | half-life at 1 µM (in vitro): 38.1 min

COc1ccc(CN2CCC(Nc3ccc(-c4cc(-c5cnn(C)c5)cn5ncc(C#N)c45)cn3)CC2)cn1 [Compound 21]
IC50 (CCDC6-RET [4]): 60.5 nM | IC50 (RET wild type (RET WT)): 45 nM | IC50 (RET (M918T)): 80 nM | IC50 (RET (V804M)): 188 nM | IC50 (KDR (VEGFR2)): 109 nM

COc1ccc(CN2C3CC2CN(c2ccc(-c4cc(C#CC(C)(C)O)cn5ncc(C#N)c45)cn2)C3)cn1 [Compound 66]
IC50 (CCDC6-RET [5]): 1.13 nM | IC50 (Ba/F3 KIF5B-RET cells): 9.17 nM | IC50 (RET wild type (RET WT)): 1.66 nM | IC50 (RET (M918T)): 2.05 nM | IC50 (RET (V804M)): 7.69 nM | IC50 (KDR (VEGFR2)): 124 nM

CO[C@]1(C(=O)N[C@@H](C)c2ccc(-n3cc(F)cn3)nc2)CC[C@H](c2nc(C)cc(Nc3cc(C)[nH]n3)n2)CC1 [BLU-667, reference compound]
IC50 [1]: 481 nM | IC50 [3]: 11.1 nM | IC50 (Ba/F3 RET-M918T cells): 12.9 nM | IC50 (Ba/F3 KIF5B-RET cells): 11.3 nM

COc1ccc(CN2C3CC2CN(c2ccc(-c4cc(N5CCOCC5=O)cn5ncc(C#N)c45)cn2)C3)cn1 [Compound 69]
IC50 (CCDC6-RET [5]): 12 nM | IC50 (RET wild type (RET WT)): 18.6 nM | IC50 (RET (M918T)): 22.3 nM | IC50 (RET (V804M)): 38.5 nM | IC50 (KDR (VEGFR2)): 755 nM

COc1ccc(CN2C3CC2CN(c2ccc(-c4cc(-c5cnn6c5CCC6)cn5ncc(C#N)c45)cn2)C3)cn1 [Compound 51]
IC50 (CCDC6-RET [4]): 2.15 nM | IC50 (RET wild type (RET WT)): 4.61 nM | IC50 (RET (M918T)): 3.9 nM | IC50 (RET (V804M)): 7.16 nM | IC50 (KDR (VEGFR2)): 52 nM

COc1ccc(CN2C3CC2CN(c2ccc(-c4cc(NCC(C)(C)O)cn5ncc(C#N)c45)cn2)C3)cn1 [Compound 78]
IC50 (Ba/F3 KIF5B-RET cells): 13.6 nM

COc1ccc(CN2C3CC2CN(c2ccc(-c4cc(N5CCC(OC)C5)cn5ncc(C#N)c45)cn2)C3)cn1 (stereo not shown) [Compound 68]
IC50 (CCDC6-RET [5]): 2.54 nM | IC50 (Ba/F3 KIF5B-RET cells): 2 nM | IC50 (RET wild type (RET WT)): 1.3 nM | IC50 (RET (M918T)): 8.47 nM | IC50 (RET (V804M)): 5.37 nM | IC50 (KDR (VEGFR2)): 16.6 nM

[2H]C([2H])([2H])[N+]1([O-])CCN(c2cc(-c3ccc(N4CC5CC(C4)N5Cc4ccc(OC)nc4)nc3)c3c(C#N)cnn3c2)CC1 [Compound 101]
IC50 (RET wild type (RET WT)): 2.5 nM | IC50 (KDR (VEGFR2)): 215 nM

COc1ccc(CN2C3CC2CN(c2ccc(-c4cc(-c5cc6n(n5)CCC6)cn5ncc(C#N)c45)cn2)C3)cn1 [Compound 57]
microsomal CLint at 1 µM (in vitro): 69.8 µL/min/mg | half-life at 1 µM [6, 10]: 19.9 min

COc1ccc(CN2C3CC2CN(c2ccc(-c4cc(N5CCP(C)(=O)CC5)cn5ncc(C#N)c45)cn2)C3)cn1 [Compound 20]
IC50 (hERG potassium channel [2]; [8]): 22200 nM | half-life at 1 µM [6]: 231 min | microsomal CLint at 1 µM [6]: 6 µL/min/mg

COc1ccc(CN2C3CC2CN(c2ccc(-c4cc(N5CCOCC5)cn5ncc(C#N)c45)cn2)C3)cn1 [Compound 65]
IC50 (hERG potassium channel [2]; [8]): 2720 nM | IC50 [3]: 58.6 nM | IC50 (Ba/F3 RET-M918T cells): 23.9 nM | IC50 (Ba/F3 KIF5B-RET cells): 8.06 nM | microsomal CLint at 1 µM [6, 9]: 44.8 µL/min/mg | half-life at 1 µM [6, 10]: 30.9 min

COc1ccc(CN2C3CC2CN(c2ccc(-c4cc(N5CCN(C)CC5)cn5ncc(C#N)c45)cn2)C3)cn1 [Compound 87]
IC50 [1]: 431 nM | IC50 (hERG potassium channel [2]; [8]): 2130 nM | IC50 [3]: 116 nM | IC50 (Ba/F3 RET-M918T cells): 13.4 nM | IC50 (Ba/F3 KIF5B-RET cells): 11.8 nM | microsomal CLint at 1 µM [6, 9]: 35.8 µL/min/mg | half-life at 1 µM [6, 10]: 38.7 min

COc1ccc(CN2C3CC2CN(c2ccc(-c4cc(N5CC(C)(O)C5)cn5ncc(C#N)c45)cn2)C3)cn1 [Compound 86]
IC50 (Ba/F3 KIF5B-RET cells): 3.66 nM

COc1ccc(CN2C3CC2CN(c2ccc(-c4cc(N5CC6CC(C5)N6)cn5ncc(C#N)c45)cn2)C3)cn1 [Compound 16]
IC50 (hERG potassium channel [7]): 2060 nM | microsomal CLint at 1 µM (in vitro): 8.8 µL/min/mg | half-life at 1 µM (in vitro): 158 min

COc1ccc(CN2C3CC2CN(c2ccc(-c4cc(N5CCC(O)C5)cn5ncc(C#N)c45)cn2)C3)cn1 (stereo not shown) [Compound 67]
IC50 (Ba/F3 KIF5B-RET cells): 3.58 nM | IC50 (RET wild type (RET WT)): 0.79 nM | IC50 (RET (M918T)): 0.75 nM | IC50 (RET (V804M)): 1.09 nM | IC50 (KDR (VEGFR2)): 24.6 nM
